Source: patent US20090004185A1, “AMINO-SUBSTITUTED QUINAZOLINE DERIVATIVES AS INHIBITORS OF BETA-CATENIN/TCF-4 PATHWAY AND CANCER TREATMENT AGENTS” (WYETH, priority 2007, published 2009)

Key:
β-catenin/Tcf-4 = assay: cells; type: cell-based; settings: 24 hours of incubation with compound, ratio Firefly/Renilla luciferase
Method in brief: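 SW480-derived lines with integrated reporters (Tcf-4-driven firefly luciferase; SV40 firefly as specificity control; SV40 Renilla for cell number/toxicity), treated 24 hours with titrated compounds, final 0.316% DMSO. Dual-luciferase read-out; firefly/Renilla ratio as % of control, duplicate plates, IC50 (nM) from curve fit.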

SV40-Luc = SV40-Luc control luciferase reporter assay, SV 5A8 cell line (SV40-Luc and SV40-R-Luc), control for non-specific inhibitors; type: cell-based, human; settings: SV 5A8 cells derived from SW480, 24 hours of incubation with compound, ratio Firefly/Renilla luciferase
Method in brief: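 Read-out is the firefly-to-Renilla luminescence ratio, expressed as % of control and averaged over duplicate plates, from which IC50s were fitted. Renilla under SV40 normalises for cell number and toxicity. SW480-derived lines carried integrated Tcf-4- or SV40-driven firefly reporters; compound exposure lasted 24 h.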

[1] = Homo sapiens, SW480, 24 h, Tcf 33.13 cells derived from SW480
[2] = Homo sapiens, Tcf22C11, 24 h, Tcf 22C11 cells derived from SW480
[3] = Tcf 22C11 cells derived from SW480
[4] = Tcf 33.13 cells derived from SW480

IC50 (β-catenin/Tcf-4; [1])	IC50 (β-catenin/Tcf-4; [2])	IC50 (SV40-Luc; Homo sapiens, SV5A8, 24 h)	SMILES	IC50 (β-catenin/Tcf-4; [3])	IC50 (β-catenin/Tcf-4; [4])	IC50 (SV40-Luc)
2120 nM	2280 nM	> 8420 nM	Cc1ccc2c(NCc3ccc(NC(=O)C4CCN(Cc5ccccc5)CC4)cc3)nc(N3CCNC(CCO)C3)nc2c1 (stereo not drawn) [Example 138, 1-benzyl-N-{4-[({2-[3-(2-hydroxyethyl)piperazin-1-yl]-7-methylquinazolin-4-yl}amino)methyl]phenyl}piperidine-4-carboxamide]	–	–	–
1420 nM	1460 nM	> 18600 nM	Cc1ccc2c(NCc3ccc(NC(=O)C4CCN(Cc5ccccc5)CC4)cc3)nc(N(C)CCO)nc2c1 [Example 139, 1-benzyl-N-{4-[({2-[(2-hydroxyethyl)(methyl)amino]-7-methylquinazolin-4-yl}amino)methyl]phenyl}piperidine-4-carboxamide]	–	–	–
1320 nM	1420 nM	> 8620 nM	Cc1ccc2c(NCc3ccc(NC(=O)C4CCN(Cc5ccccc5)CC4)cc3)nc(N(C)CCCN(C)C)nc2c1 [Example 140, 1-benzyl-N-{4-[({2-[[3-(dimethylamino)propyl](methyl)amino]-7-methylquinazolin-4-yl}amino)methyl]phenyl}-piperidine-4-carboxamide]	–	–	–
1330 nM	1580 nM	> 17700 nM	Cc1ccc2c(NCc3ccc(NC(=O)C4CCN(Cc5ccccc5)CC4)cc3)nc(N3CCN(C)CC3)nc2c1 [Example 141, 1-benzyl-N-[4-({[7-methyl-2-(4-methylpiperazin-1-yl)quinazolin-4-yl]amino}methyl)phenyl]piperidine-4-carboxamide]	–	–	–
677 nM	573 nM	> 4280 nM	Cc1ccc2c(NCc3ccc(NC(=O)C4CCN(Cc5ccccc5)CC4)cc3)nc(N(C)Cc3ccccc3)nc2c1 [Example 142, 1-benzyl-N-{4-[({2-[benzyl(methyl)amino]-7-methylquinazolin-4-yl}amino)methyl]phenyl}-piperidine-4-carboxamide]	–	–	–
1470 nM	1930 nM	> 8870 nM	Cc1ccc2c(NCc3ccc(NC(=O)C4CCN(Cc5ccccc5)CC4)cc3)nc(N3CCN[C@H](C)C3)nc2c1 [Example 143, 1-benzyl-N-{4-[({7-methyl-2-[(3R)-3-methylpiperazin-1-yl]quinazolin-4-yl}amino)methyl]phenyl}piperidine-4-carboxamide]	–	–	–
1440 nM	2270 nM	> 8840 nM	Cc1ccc2c(NCc3ccc(NC(=O)C4CCN(Cc5ccccc5)CC4)cc3)nc(N(C)CCN(C)C)nc2c1 [Example 144, 1-benzyl-N-{4-[({2-[[2-(dimethylamino)ethyl](methyl)amino]-7-methylquinazolin-4-yl}amino)methyl]phenyl}piperidine-4-carboxamide]	–	–	–
1230 nM	1350 nM	> 16700 nM	Cc1ccc2c(NCc3ccc(NC(=O)C4CCN(Cc5ccccc5)CC4)cc3)nc(N(C)CCc3ccccn3)nc2c1 [Example 145, 1-benzyl-N-{4-[({7-methyl-2-[methyl(2-pyridin-2-ylethyl)amino]quinazolin-4-yl}amino)methyl]phenyl}piperidine-4-carboxamide]	–	–	–
1770 nM	2000 nM	> 10100 nM	CN(C)c1nc(NCc2ccc(NC(=O)C3CCN(Cc4ccccc4)CC3)cc2)c2ccccc2n1 [Example 146, 1-benzyl-N-[4-({[2-(dimethylamino)quinazolin-4-yl]amino}methyl)phenyl]piperidine-4-carboxamide]	–	–	–
1250 nM	1570 nM	> 5200 nM	CNc1nc(NCc2ccc(NC(=O)C3CCN(Cc4ccccc4)CC3)cc2)c2ccccc2n1 [Example 147, 1-benzyl-N-[4-({[2-(methylamino)quinazolin-4-yl]amino}methyl)phenyl]piperidine-4-carboxamide]	–	–	–
1030 nM	1070 nM	> 9170 nM	Cc1ccc2nc(N(C)C)nc(NCc3ccc(NC(=O)C4CCN(Cc5ccccc5)CC4)cc3)c2c1 [Example 148, 1-benzyl-N-[4-({[2-(dimethylamino)-6-methylquinazolin-4-yl]amino}methyl)phenyl]piperidine-4-carboxamide]	–	–	–
726 nM	606 nM	> 2530 nM	CNc1nc(NCc2ccc(NC(=O)C3CCN(Cc4ccccc4)CC3)cc2)c2cc(C)ccc2n1 [Example 149, 1-benzyl-N-[4-({[6-methyl-2-(methylamino)quinazolin-4-yl]amino}methyl)phenyl]piperidine-4-carboxamide]	–	–	–
> 962 nM	1050 nM	> 3850 nM	CN(C)c1nc(NCc2ccc(NC(=O)C3CCN(Cc4ccccc4)CC3)cc2)c2ccc(/C=C/C(C)(C)C)cc2n1 [Example 152, 1-benzyl-N-{4-[({2-(dimethylamino)-7-[(1E)-3,3-dimethylbut-1-en-1-yl]quinazolin-4-yl}amino)methyl]phenyl}piperidine-4-carboxamide]	–	–	–
305 nM	462 nM	> 4110 nM	C/C=C\c1ccc2c(NCc3ccc(NC(=O)C4CCN(Cc5ccccc5)CC4)cc3)nc(N(C)C)nc2c1 [Example 153, 1-benzyl-N-{4-[({2-(dimethylamino)-7-[(1Z)-prop-1-en-1-yl]quinazolin-4-yl}amino)methyl]phenyl}piperidine-4-carboxamide]	–	–	–
4190 nM	3590 nM	> 8610 nM	CN(C)c1nc(NCc2ccc(NC(=O)C3CCN(Cc4ccc(F)cc4)CC3)cc2)c2cc(C(F)(F)F)ccc2n1 [Example 154, N-[4-({[2-(dimethylamino)-6-(trifluoromethyl)quinazolin-4-yl]amino}methyl)phenyl]-1-(4-fluorobenzyl)piperidine-4-carboxamide]	–	–	–
3490 nM	> 2110 nM	> 8440 nM	O=C(Nc1ccc(CNc2nc(N3CCC3)nc3ccc(C(F)(F)F)cc23)cc1)C1CCN(Cc2ccc(F)cc2)CC1 [Example 155, N-[4-({[2-azetidin-1-yl-6-(trifluoromethyl)quinazolin-4-yl]amino}methyl)phenyl]-1-(4-fluorobenzyl)piperidine-4-carboxamide]	–	–	–
3690 nM	> 4120 nM	> 8240 nM	O=C(Nc1ccc(CNc2nc(N3CCCC3)nc3ccc(C(F)(F)F)cc23)cc1)C1CCN(Cc2ccc(F)cc2)CC1 [Example 156, 1-(4-fluorobenzyl)-N-[4-({[2-pyrrolidin-1-yl-6-(trifluoromethyl)quinazolin-4-yl]amino}methyl)phenyl]piperidine-4-carboxamide]	–	–	–
> 3570 nM	> 7140 nM	> 7140 nM	O=C(Nc1ccc(CNc2nc(N3CCN(c4ncccn4)CC3)nc3ccc(C(F)(F)F)cc23)cc1)C1CCN(Cc2ccc(F)cc2)CC1 [Example 157, 1-(4-fluorobenzyl)-N-[4-({[2-(4-pyrimidin-2-ylpiperazin-1-yl)-6-(trifluoromethyl)quinazolin-4-yl]amino}methyl)phenyl]piperidine-4-carboxamide]	–	–	–
3850 nM	> 4110 nM	> 8210 nM	CCN(CC)c1nc(NCc2ccc(NC(=O)C3CCN(Cc4ccc(F)cc4)CC3)cc2)c2cc(C(F)(F)F)ccc2n1 [Example 158, N-[4-({[2-(diethylamino)-6-(trifluoromethyl)quinazolin-4-yl]amino}methyl)phenyl]-1-(4-fluorobenzyl)piperidine-4-carboxamide]	–	–	–
> 8240 nM	> 8240 nM	> 8240 nM	O=C(Nc1ccc(CNc2nc(NC3CCC3)nc3ccc(C(F)(F)F)cc23)cc1)C1CCN(Cc2ccc(F)cc2)CC1 [Example 159, N-[4-({[2-(cyclobutylamino)-6-(trifluoromethyl)quinazolin-4-yl]amino}methyl)phenyl]-1-(4-fluorobenzyl)piperidine-4-carboxamide]	–	–	–
–	–	–	CNc1nc(NCc2ccc(NC(=O)C3CCN(Cc4ccc(F)cc4)CC3)cc2)c2cc(C(F)(F)F)ccc2n1 [Example 160]	1450 nM	> 2210 nM	> 4410 nM
1520 nM	1710 nM	> 10000 nM	CN(C)c1nc(NCc2ccc(NC(=O)c3ccc(Cl)cc3)cc2)c2cc(C(F)(F)F)ccc2n1 [Example 161, 4-chloro-N-[4-({[2-(dimethylamino)-6-(trifluoromethyl)quinazolin-4-yl]amino}methyl)phenyl]benzamide]	–	–	–
2230 nM	3580 nM	> 9770 nM	O=C(Nc1ccc(CNc2nc(N3CCC3)nc3ccc(C(F)(F)F)cc23)cc1)c1ccc(Cl)cc1 [Example 162, N-[4-({[2-azetidin-1-yl-6-(trifluoromethyl)quinazolin-4-yl]amino}methyl)phenyl]-4-chlorobenzamide]	–	–	–
–	–	–	O=C(Nc1ccc(CNc2nc(N3CCCC3)nc3ccc(C(F)(F)F)cc23)cc1)c1ccc(Cl)cc1 [Example 163]	6990 nM	6550 nM	> 9510 nM
4310 nM	5190 nM	> 8080 nM	O=C(Nc1ccc(CNc2nc(N3CCN(c4ncccn4)CC3)nc3ccc(C(F)(F)F)cc23)cc1)c1ccc(Cl)cc1 [Example 164, 4-chloro-N-[4-({[2-(4-pyrimidin-2-ylpiperazin-1-yl)-6-(trifluoromethyl)quinazolin-4-yl]amino}methyl)phenyl]benzamide]	–	–	–
